Reference: publication PMC3260273, “Allosteric Antagonism of Insect Odorant Receptor Ion Channels” (PLoS ONE, 2012)

Legend:
[1] = target: T1, HsOrco (Harpegnathos saltator, UniProt E2BJ30); experiment: whole-cell patch clamp, HEK cells, […] antagonist against […] VUAA1; format: cell-based
T1 construct: gene Orco
T1 sequence (E2BJ30 1-479): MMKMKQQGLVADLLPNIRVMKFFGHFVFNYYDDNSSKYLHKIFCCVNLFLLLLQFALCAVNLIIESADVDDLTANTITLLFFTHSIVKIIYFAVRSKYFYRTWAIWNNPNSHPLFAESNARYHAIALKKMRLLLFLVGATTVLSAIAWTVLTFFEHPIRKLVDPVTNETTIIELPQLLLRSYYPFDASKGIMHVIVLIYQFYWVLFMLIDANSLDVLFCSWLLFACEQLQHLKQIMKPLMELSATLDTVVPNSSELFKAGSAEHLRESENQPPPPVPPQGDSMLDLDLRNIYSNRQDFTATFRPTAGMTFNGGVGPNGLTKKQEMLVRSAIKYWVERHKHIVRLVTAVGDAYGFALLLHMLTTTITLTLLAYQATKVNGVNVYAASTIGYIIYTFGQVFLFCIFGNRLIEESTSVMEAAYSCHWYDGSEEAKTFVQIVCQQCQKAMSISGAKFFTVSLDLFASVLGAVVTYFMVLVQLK

[2] = target: T2, AgOrco (Anopheles gambiae, UniProt Q7QCC7); experiment: calcium mobilization in AgOrco-only HEK cells against VUAA1; whole-cell patch clamp; format: cell-based
T2 construct: gene Orco
T2 sequence (Q7QCC7 1-478): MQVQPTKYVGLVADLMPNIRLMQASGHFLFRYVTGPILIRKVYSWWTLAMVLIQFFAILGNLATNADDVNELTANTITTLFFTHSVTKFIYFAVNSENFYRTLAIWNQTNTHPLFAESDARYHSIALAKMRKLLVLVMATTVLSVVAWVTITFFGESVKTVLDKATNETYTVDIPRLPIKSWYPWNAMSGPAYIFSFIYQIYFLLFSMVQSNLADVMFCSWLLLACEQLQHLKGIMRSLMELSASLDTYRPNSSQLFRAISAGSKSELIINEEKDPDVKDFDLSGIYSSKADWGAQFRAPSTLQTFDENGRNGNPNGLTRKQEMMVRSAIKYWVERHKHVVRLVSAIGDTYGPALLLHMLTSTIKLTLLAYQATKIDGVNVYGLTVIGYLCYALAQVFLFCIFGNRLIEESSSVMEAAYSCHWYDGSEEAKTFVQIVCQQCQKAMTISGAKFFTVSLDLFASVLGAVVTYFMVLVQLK

[3] = target: T2, AgOrco; experiment: calcium mobilization in AgOrco-only HEK cells against VUAA1; format: cell-based
[4] = target: TRPV1 (Rattus norvegicus, UniProt O35433); experiment: whole-cell patch clamp in HEK cells, […] capsaicin; format: cell-based
[5] = system: T3, AgOr65; experiment: calcium mobilization concentration response in AgOrco+AgOr65 HEK cells; patch clamp; format: cell-based, Anopheles gambiae
T3 construct: gene Or65; with AgOrco

TRPV1, sequence (O35433 whole entry): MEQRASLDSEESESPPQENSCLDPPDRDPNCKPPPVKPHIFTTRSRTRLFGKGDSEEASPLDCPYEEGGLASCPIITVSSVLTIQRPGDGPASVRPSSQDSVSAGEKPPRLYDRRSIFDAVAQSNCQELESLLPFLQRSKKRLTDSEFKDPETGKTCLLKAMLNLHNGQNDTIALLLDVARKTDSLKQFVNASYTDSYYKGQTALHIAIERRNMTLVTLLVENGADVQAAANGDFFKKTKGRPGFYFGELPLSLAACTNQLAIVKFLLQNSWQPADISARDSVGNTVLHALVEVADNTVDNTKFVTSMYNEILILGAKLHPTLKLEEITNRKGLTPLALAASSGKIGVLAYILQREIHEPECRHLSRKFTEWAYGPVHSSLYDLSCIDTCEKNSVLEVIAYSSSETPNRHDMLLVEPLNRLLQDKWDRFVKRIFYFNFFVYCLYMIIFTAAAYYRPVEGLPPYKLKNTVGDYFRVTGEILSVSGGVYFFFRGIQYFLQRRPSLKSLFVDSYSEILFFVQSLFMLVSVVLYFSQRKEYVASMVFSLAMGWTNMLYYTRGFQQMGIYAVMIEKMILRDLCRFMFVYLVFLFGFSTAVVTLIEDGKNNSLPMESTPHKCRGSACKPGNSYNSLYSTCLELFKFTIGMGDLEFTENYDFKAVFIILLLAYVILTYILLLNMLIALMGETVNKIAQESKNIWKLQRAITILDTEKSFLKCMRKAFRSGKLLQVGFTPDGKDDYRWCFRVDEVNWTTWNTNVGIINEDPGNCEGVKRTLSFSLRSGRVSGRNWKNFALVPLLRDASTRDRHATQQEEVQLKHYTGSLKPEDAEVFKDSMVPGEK

CCn1c(SCC(=O)N2c3ccccc3Sc3ccccc32)nnc1-c1ccco1 [VU0183254, 10-({[4-ethyl-5-(2-furyl)-4H-1,2,4-triazol-3-yl]thio}acetyl)-10H-phenothiazine]
% [1]: 63.9±2.2%
IC50 [2]: 12.6 µM

CCn1c(SCC(=O)Nc2ccc(Br)cc2C)nnc1-c1cccnc1 [VU0450667, N-(4-bromo-2-methylphenyl)-2-((4-ethyl-5-(pyridin-3-yl)-4H-1,2,4-triazol-3-yl)thio)acetamide]
IC50 [3]: 1580 µM

COc1cc(CNC(=O)CCCC/C=C/C(C)C)ccc1O [capsaicin]
whole-cell patch clamp in HEK cells, 10 μM capsaicin [4]: VU0183254 did not affect the macroscopic currents induced by the natural TRPV1 ligand capsaicin

C=CCc1ccc(O)c(OC)c1 [eugenol]
EC50 [5]: −6.69+/−.03 log M
